Patent publication US12115149B2, “Formulations, methods, kits, and dosage forms” (MedRegen, LLC, priority 2020, dated 2024)
Read-outs that look alike come from different tables or passages of the source.

Legend:
[1] = cited from earlier work
[2] = Degradation of FK506 in a combination of the two APIs; format: physicochemical; settings: combination of the two APIs in solution, earlier attempts; stated as 'may be'
[3] = pig, in vivo, sc
Procedure: (§1) All samples were frozen and stored at −70° C. on receipt. The samples were analyzed by liquid chromatography with tandem mass spectral detection.

[4] = PK/PD study of Formulation A s.c. in mini pigs; settings: Formulation A 0.132 ml/kg s.c.
Procedure: as §1

[5] = rat, in vivo, sc; for time by which cleared: SD
Procedure: as §1

[6] = PK/PD study of Formulation A s.c. in SD rats; settings: for absorption lag time after s.c. administration: Formulation A 0.744 ml/kg s.c.
Procedure: as §1

Compound: C=CC[C@@H]1/C=C(\C)C[C@H](C)C[C@H](OC)[C@H]2O[C@@](O)(C(=O)C(=O)N3CCCC[C@H]3C(=O)O[C@H](/C(C)=C/[C@@H]3CC[C@@H](O)[C@H](OC)C3)[C@H](C)[C@@H](O)CC1=O)[C@H](C)C[C@@H]2OC [FK506, Tacrolimus]
- solubility in water [1]: poor solubility in water
- FK506 degraded [2]: About 50%
- blood level at 3 hours [3]: remained at high levels
- clearance from blood [4]: cleared rapidly after 12 hours
- time by which cleared [5]: ≤ 12 h
- plasma level at 3 hours [5]: remained at high levels
- absorption lag time after s.c. administration [6]: no observable lag time
- time of peak plasma concentration ([6]; Formulation A 0.744 ml/kg s.c. (AMD3100 17.856 mg/kg, FK506 0.372 mg/kg), n=12): 1 h

Compound: AMD3100 octahydrochloride hydrate
- solubility in water [1]: 22 mg/mL

Compound: c1cc(CN2CCCNCCNCCCNCC2)ccc1CN1CCCNCCNCCCNCC1 [AMD3100]
- blood level at 3 hours [4]: remained at high levels
- clearance from blood [4]: cleared rapidly after 12 hours
- time by which cleared [5]: ≤ 12 h
- plasma level at 3 hours [5]: remained at high levels
- absorption lag time after s.c. administration [6]: no observable lag time
